Data on 29 compounds can be found in ChEMBL document CHEMBL4725427, “Synthesis and SAR Studies of 1H-Pyrrolo[2,3-b]pyridine-2-carboxamides as Phosphodiesterase 4B (PDE4B) Inhibitors” (ACS Med Chem Lett, 2020).

Series [1] deals with T1, 3',5'-cyclic-AMP phosphodiesterase 4B (Homo sapiens, UniProt Q07343). Kind of series: Inhibition of recombinant human C-terminal His-tagged N-terminal GST-tagged PDE4B2 expressed in baculovirus infected Sf9 cells at 10 uM by radioligand binding assay relative to control.
T1 sequence (Q07343 whole entry): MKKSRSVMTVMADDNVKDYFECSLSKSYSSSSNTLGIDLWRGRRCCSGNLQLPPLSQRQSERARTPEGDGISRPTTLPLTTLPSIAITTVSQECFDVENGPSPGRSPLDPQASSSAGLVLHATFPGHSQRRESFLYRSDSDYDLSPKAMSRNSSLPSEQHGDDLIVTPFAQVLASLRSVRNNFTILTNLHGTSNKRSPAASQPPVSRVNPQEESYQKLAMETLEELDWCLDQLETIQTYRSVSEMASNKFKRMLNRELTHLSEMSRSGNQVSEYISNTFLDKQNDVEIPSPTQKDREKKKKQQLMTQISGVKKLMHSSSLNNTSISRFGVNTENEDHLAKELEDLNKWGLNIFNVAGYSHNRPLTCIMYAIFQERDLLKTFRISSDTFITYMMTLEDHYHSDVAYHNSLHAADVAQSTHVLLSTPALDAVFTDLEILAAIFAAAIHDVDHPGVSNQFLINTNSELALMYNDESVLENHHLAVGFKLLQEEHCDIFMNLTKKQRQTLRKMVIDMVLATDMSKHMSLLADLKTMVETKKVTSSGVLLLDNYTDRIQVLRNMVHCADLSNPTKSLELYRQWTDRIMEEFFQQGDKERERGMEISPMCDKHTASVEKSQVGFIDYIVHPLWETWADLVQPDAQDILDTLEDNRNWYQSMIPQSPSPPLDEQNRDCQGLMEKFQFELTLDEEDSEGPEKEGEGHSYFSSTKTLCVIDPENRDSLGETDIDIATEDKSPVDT
Series [2] is described as follows: Metabolic stability in human liver microsomes assessed as intrinsic clearance. It counts as ADME, Microsome. To be noted: read-out: CLH. For orientation: Liver microsomes are a subcellular fraction often used to study metabolism.
The nature of series [3]: Metabolic stability in mouse liver microsomes assessed as intrinsic clearance. Type of series: ADME, Microsome. To be noted: read-out: CLH.
Series [4] can be described thus: Protein binding in human plasma assessed as unbound fraction. Type of series: ADME, cell-free.
Series [5] is described as follows: Protein binding in mouse plasma assessed as unbound fraction. It counts as ADME, cell-free.
Series [6] addresses T1, 3',5'-cyclic-AMP phosphodiesterase 4B. The series can be described thus: Inhibition of recombinant human C-terminal His-tagged N-terminal GST-tagged PDE4B2 expressed in baculovirus infected Sf9 cells by radioligand binding assay. Type of series: cell-based.
Series [7] in a line: Effect on TNFalpha production in C57BL/6 mouse bone marrow derived Macrophage at 1 to 10 uM incubated for 30 mins by ELISA. The conditions noted are these: 0.5 h. (In general: In an ELISA, binding on a coated surface is turned into a signal by an enzyme label.)

One may read the inhibition as the share of the control response that was lost under treatment. Regarding `COc1ccc(-n2c(C(=O)N3CC(F)C3)cc3cccnc32)cc1F`, the inhibition in series [1] was 77%.

As usually defined, the fraction unbound is free concentration divided by total concentration. As for `N#Cc1c(F)cc(-n2c(C(=O)NC3CC3)cc3cccnc32)cc1F`, the CLint scaled in series [2] was 31.5 mL/min/kg; in series [3] it was below 49.5 mL/min/kg. For the same compound, the fraction unbound was found to be 0.235 in series [4] and 0.096 in series [5].

As for `O=C(c1cc2cccnc2n1-c1ccc(Cl)c(F)c1)N1CC(F)(F)C1`, the inhibition in series [1] stood at 48%.

As for `Cc1ccc(-c2c(C(=O)NC3CC3)n(C)c3cccnc23)cc1Cl`, the inhibition in series [1] was determined as 56%.

Consider `O=C(c1cc2ccccc2n1-c1ccc(Cl)c(Cl)c1)N1CC(F)C1`, for which, in series [1], the inhibition was 58%.

As usually defined, the IC50 is the midpoint of a concentration-inhibition curve. `O=C(NC1CC1)c1nn2ccccc2c1-c1ccc(Cl)c(Cl)c1`: the IC50 in series [6] came to 4.2 µM.

In the case of `O=C(c1nc2ccccc2n1-c1ccc(Cl)c(Cl)c1)N1CC(F)C1`, the IC50 in series [6] turned out to be 2.4 µM.

`O=C(NC1CC1)c1cc2cccnc2n1-c1ccc(Cl)c(Cl)c1`: the results for the CLint scaled in series [2] and in series [3] were 179 mL/min/kg and 157 mL/min/kg, respectively. Also, the figures for the fraction unbound in series [4] and in series [5] were 0.026 and 0.006, respectively.

Consider `Cc1ccc(-c2c(C(=O)NC3CC3)sc3nccnc23)cc1Cl`, for which the inhibition in series [1] was determined as 46%.

With `COc1c(F)cc(-n2c(C(=O)N3CC(F)C3)cc3cccnc32)cc1F`, the Activity result in series [7] is listed as “Non-Toxic”. The CLint scaled in series [2] is below 23.1 mL/min/kg; in series [3], below 49.5 mL/min/kg. For the same compound, the results for the fraction unbound in series [4] and in series [5] were 0.302 and 0.133, respectively.

On to `Cc1ccc(-n2c(C(=O)NC3CC3)nc3cccnc32)cc1Cl`, for which the CLint scaled amounted to 29.6 mL/min/kg in series [2] and 150 mL/min/kg in series [3]. Also, the values for the fraction unbound in series [4] and in series [5] were 0.085 and 0.056, respectively.

`N#Cc1c(F)cc(-n2c(C(=O)N3CC(F)(F)C3)cc3cccnc32)cc1F`: the inhibition in series [1] came to 41%.

Take `Cc1ccc(-n2c(C(=O)NC3CC(F)C3)cc3cccnc32)cc1Cl` (stereo not drawn): the IC50 in series [6] turned out to be 9.4 µM. Further, the Activity result in series [7] is “Non-Toxic”.

Take `Cc1ccc(-n2c(C(=O)N3CC(F)(F)C3)cc3cccnc32)cc1Cl`: the inhibition in series [1] worked out at 47%.

On to `COc1c(F)cc(-n2c(C(=O)N3CC(F)(F)C3)cc3cccnc32)cc1F`, for which the inhibition in series [1] was 35%.

With `N#Cc1c(F)cc(-n2c(C(=O)NC3CC(F)(F)C3)cc3cccnc32)cc1F`, the inhibition in series [1] worked out at 47%.

For `Cc1ccc(-n2c(C(=O)NC3CC3)cc3cccnc32)cc1Cl`, the CLint scaled in series [2] was 172 mL/min/kg; in series [3] it was 551 mL/min/kg. The unbound share (fraction unbound) was determined as 0.011 in series [4] and 0.006 in series [5].

On to `O=C(c1cc2cccnc2n1-c1ccc(Cl)cc1)N1CC(F)(F)C1`, for which the inhibition in series [1] is 47%.

On to `N#Cc1c(F)cc(-n2c(C(=O)NC3CC(F)C3)cc3cccnc32)cc1F` (stereo not drawn), for which the inhibition in series [1] stood at 58%.

Take `O=C(c1cc2cccnc2n1-c1ccnc(F)c1)N1CC(F)(F)C1`: the inhibition in series [1] was 37%.

For the compound `O=C(NCc1ccco1)c1cc2cccnc2n1-c1ccc(Cl)c(Cl)c1`, the inhibition in series [1] is 70%.

On to `COc1ccc(C2CNC(=O)C2)cc1OC1CCCC1` (stereo not drawn) [ROLIPRAM], for which the Activity entry in series [7] was “Non-Toxic”.

In the case of `O=C(c1cc2cccnc2n1-c1cc(F)c(Cl)c(F)c1)N1CC(F)(F)C1`, the inhibition in series [1] was 48%. In series [7], the Activity entry was “Non-Toxic”. In addition, the CLint scaled in series [2] was 33.3 mL/min/kg; in series [3], 104 mL/min/kg. In addition, the free fraction (fraction unbound) in series [4] was found to be 0.113; in series [5] it was 0.051.

Take `O=C(NC1CC(F)(F)C1)c1cc2cccnc2n1-c1ccc(Cl)c(Cl)c1`: the inhibition in series [1] is 23%.

In the case of `O=C(c1cc2cccnc2n1Cc1ccc(Cl)c(Cl)c1)N1CC(F)C1`, in series [1], the inhibition worked out at 72%.

For `COc1ncc(-n2c(C(=O)N3CC(F)C3)cc3cccnc32)cc1Cl`, the Activity result in series [7] is recorded as “Non-Toxic”. Moreover, the CLint scaled was below 23.1 mL/min/kg in series [2] and 134 mL/min/kg in series [3]. Moreover, the free fraction (fraction unbound) was determined as 0.049 in series [4] and 0.066 in series [5].

As for `O=C(c1cc2cccnc2n1-c1ccc(Cl)c(F)c1)N1CC(F)C1`, the Activity entry in series [7] was “Non-Toxic”.

For the compound `O=C(c1cc2cccnc2n1-c1ccnc(F)c1)N1CC(F)C1`, the CLint scaled in series [2] was below 23.1 mL/min/kg; in series [3] it was below 49.5 mL/min/kg. The fraction unbound in series [4] worked out at 0.474; in series [5] it was 0.393.

For the compound `COc1ccc(-n2c(C(=O)N3CC(F)C3)cc3cccnc32)cc1`, the inhibition in series [1] was found to be 67%.
